Reference: patent publication US20070281947A1, “Diarylmethylpiperazines As Prophylactic Or Therapeutic Agents For Viral Myocarditis” (priority 2002, published 2007)
Marks after values point to notes of the source that are not given here.

Experiments:
Assay type in all cases: in vivo
[1] = tested on: EMC (encephalomyocarditis) virus; assay: Effect on survival rate in a cardiac insufficiency model induced by EMC viral myocarditis in mice; conditions: for Survival rate (day 14): DBA/2 mice, EMC virus 1 pfu/mouse i.p., n = 10, control 10%
Method: A comparative study was conducted on the effect of cetirizine on survival rate in a cardiac insufficiency model induced by EMC (encephalomyocarditis) viral myocarditis in mice.
28-day-old, male DBA/2 mice were divided into three groups, and EMC virus that causes myocarditis was inoculated intraperitoneally to all groups at 1 pfu/mouse (0.1 ml as phosphate-buffered saline (PBS)) (day 0)(pfu means plaque forming unit). The EMC virus used here was acquired from ATCC (American Type Culture Collection, Manassas, Va., U.S.A.), and said EMC virus was used after diluting with PBS.
Following inoculation, a control group given only distilled water to serve as a control (n=10), a cetirizine low dose group to which cetirizine dissolved in distilled water was administered at a dose of 1 mg/kg/day (n=10), and a cetirizine high dose group to which cetirizine dissolved in distilled water was administered at 10 mg/kg/day (n=10), were forcibly fed once a day using a cannula (Wakenyaku Co., Ltd.) for 14 consecutive days.
The survival rates of the above three groups after 14 days were compared according to the Kaplan-Meier method (documents such as StatView, SAS Institute Inc., Cary, N.C., U.S.A. 1988 can be referred to for further details regarding this Kaplan-Meier method).
Data are obtained by analyzing the results obtained above according to the Kaplan-Meier method.

EMC virus [2] = assay: Effect on histopathological changes in heart muscle in a cardiac insufficiency model induced by EMC viral myocarditis in mice; conditions: for Heart weight (g) (day 5) / Heart weight/body weight ratio (day 5): DBA/2 mice; for Heart weight (g) (day 5): EMC virus 1 pfu/mouse i.p.; for Heart weight/body weight ratio (day 5): EMC virus
Method: A comparative study was conducted on the effect of cetirizine on histopathological changes in heart muscle in a cardiac insufficiency model induced by EMC viral myocarditis in mice.
28-day-old, male DBA/2 mice were divided into three groups, and EMC virus was inoculated intraperitoneally to all groups at 1 pfu/mouse (day 0) in the same manner as Test Example 1.
(§1) Following inoculation, similar to Example 1, a control group given only distilled water to serve as a control (n=7), a cetirizine low dose group to which cetirizine was administered at a dose of 1 mg/kg/day (n=10), and a cetirizine high dose group to which cetirizine was administered at 10 mg/kg/day (n=7), were forcibly fed once a day using a cannula in the same manner as Test Example 1 for 5 consecutive days.
After five days, the hearts of the animals were removed, stained with hematoxylin-eosin stain after fixing with formalin, and scored for the two parameters of heart muscle cellular necrosis and inflammatory cellular invasion in the manner described below (documents such as Circulation 1999; 100; 1823-1829 can be referred to for further details regarding this formalin fixation, hematoxylin-eosin staining and scoring). The scores for heart muscle cellular necrosis and inflammatory cellular invasion were evaluated independently by two observers and then averaged. Statistical analysis was performed using the one way analysis of variance (ANOVA) and Fisher's protected least significant difference test (documents such as StatVien, SAS Institute Inc., Cary, N.C., U.S.A., 1998 can be referred to for further details regarding these statistical analysis methods).
1+: Lesions in 25% or less of heart
2+: Lesions in more than 25% to 50% of heart
3+: Lesions in more than 50% to 75% of heart
4+: Lesions in more than 75% to 100% of heart
Data consisting of heart weight, body weight, heart weight/body weight ratio, heart muscle cellular necrosis and inflammatory cellular invasion measured in accordance with that described above is summarized in Table 1 below. Furthermore, the previously described survival rate data and data relating to heart muscle interferon production to be described later are also shown in Table 1.

EMC virus [3] = assay: Effect on intramyocardial cytokine production (ELISA) in a cardiac insufficiency model induced by EMC viral myocarditis in mice
Method: A comparative study was conducted on the effect of cetirizine on cytokine production within heart muscle in a cardiac insufficiency model induced by EMC viral myocarditis in mice.
28-day-old, male DBA/2 mice were divided into three groups, and EMC virus was inoculated intraperitoneally to all groups at 1 pfu/mouse (day 0) in the same manner as Example 1.
as §1, with “(n=10),” for “(n=7),”, “7” for “5”, “days. […]” for “days.”
The protein concentration of each cytokine was measured by ELISA using a commercially available kit (Circulation, 100: 1102-1108, 1999). […]
The total protein concentration of each supernatant was measured by the bicinchoninic acid (BCA) method followed by calculation of the ratio of cytokine concentration to total protein concentration (J. Am. Coll. Cardiol., 33: 1400-1407, 1999). Each cytokine protein concentration was expressed as pg/mg of total protein or ng/mg of total protein. […]

[4] = 1 mg/kg/day oral, 5 days, n = 10, mean ± SD
[5] = 10 mg/kg/day oral, 5 days, n = 7, mean ± SD
[6] = score 0 to 4+ (share of heart with lesions), two observers averaged, 1 mg/kg/day oral, 5 days, n = 10, mean ± SD

## O=C(O)COCCN1CCN(C(c2ccccc2)c2ccc(Cl)cc2)CC1 (racemic) [Cetirizine, (±)-[2-[4-[(4-chlorophenyl)phenylmethyl]-1-piperazinyl]ethoxy]acetic acid]
[1]; 1 and 10 mg/kg/day, 14 days, Kaplan-Meier, p<0.05
  Effect on survival rate (in words): improved concentration-dependently
[1]; 1 mg/kg/day oral, 14 days, 1 mg/kg/day
  Survival rate (day 14): 40% (4/10)
[1]; 1 mg/kg/day oral, 14 days, listed as cetirizine, 1 mg/kg/day
  Survival rate (day 14): 40%
[1]; 10 mg/kg/day oral, 14 days, p < 0.05 vs. control, 10 mg/kg/day
  Survival rate (day 14): 50% (5/10)*
[1]; 10 mg/kg/day oral, 14 days, p < 0.05 vs. control, listed as cetirizine, 10 mg/kg/day
  Survival rate (day 14): 50%
[1]; summary of Examples 1 and 2: improved mortality rate of mice and viral myocarditis
  Overall efficacy against EMC viral infection / viral myocarditis (in words): effective against viral infection
EMC virus [2]; 1 and 10 mg/kg/day, day 5, dose-dependently
  Histopathological changes of the heart (in words): trend of diminished inflammatory cell invasion and necrosis
EMC virus [2]; [4]
  Heart weight (g) (day 5): 0.07 ± 0.008 g
  Heart weight/body weight ratio (day 5): 5.4 ± 1.1
EMC virus [2]; [5]
  Heart weight (g) (day 5): 0.60 ± 0.006 g
  Heart weight/body weight ratio (day 5): 5.1 ± 0.8
EMC virus [2]; [6]
  Heart muscle cellular necrosis (day 5): 1.8 ± 1.0
  Inflammatory cellular invasion (day 5): 2.3 ± 0.8
EMC virus [3]; 7 days after virus inoculation, 1 and 10 mg/kg/day
  Intramyocardial IFN-γ (in words): concentration-dependent increase
EMC virus [3]; ELISA of ventricle homogenate, relative to total protein, 1 mg/kg/day oral, 7 days, n = 10, mean ± SD, p < 0.05 vs. control
  Heart muscle interferon-γ (day 7): 2.2 ± 1.0
